We go through 1 molecule from patent publication US5229367A, “Antiinflammatory peptide derived from human lipocortin V” (Sclavo S.p.A., priority 1991, dated 1993).

≈ marks a conversion by molar mass, not a printed value. Where two headings read alike, the source gives them in different places. Peptide text beside a SMILES is read from it.

Test [1] deals with rat peritoneal leukocytes. As to the kind of experiment: Inhibition of zymosan-stimulated prostaglandin E2 release in rat peritoneal leukocytes (radioimmunoassay). The format is cell-based. The conditions noted are these: peptide 100 μg/ml. As for the experimental part:
Rat peritoneal leukocytes were collected and purified as described by Parente and Flower (supra), then suspended in Krebs solution oxygenated with Carbogen at a final concentration of 1.10^6 cells/ml. Samples (1 ml) of said suspension were incubated in a thermostatic bath at 37° C. for 30 min in the presence (100 μg/ml) and in the absence (control) of the synthetic peptide 204-212. The incubation was maintained for a further 60 min at 37° C. after addition to each culture of 200 μg/ml Zymosan (activated by opsonization, i.e. incubated with mouse serum for 30 min at 37° C.). At the end of this time the cells were separated from the suspension by centrifugation at 10,000 rpm for 5 min using an Eppendorf centrifuge model 5414. The supernatants thus recovered were analysed by radioimmunoassay to monitor the prostaglandin E2 (PGE2) levels.

In test [2] the target is T1, phospholipase A2 (pig pancreas phospholipase preparation) (Sus scrofa, UniProt P00592).
T1 construct: pig pancreas phospholipase preparation from Sigma; purchased Sigma; host or cells: pig pancreas (tissue-derived preparation)
As to the kind of experiment: Inhibition of PLA2 induced contractions in rat stomach strip. The following applies: peptide 20 μg/ml, 30 min; PLA2 4.4 μg/ml; mean of four samples. On the procedure:
The rat stomach bottom strip was prepared as originally described by Vane (Br. J. Pharmacol., 12: 344-349, 1957) and suspended in a small bath for resected organs, thermostated at 37° in Krebs solution. After two hours stabilisation in said bath, the stomach reacts to phospholipase A2 stimulation (pig pancreas phospholipase preparation from Sigma) by contracting. These contractions are recorded by means of an isotonic transductor on recorder (Firm Basile). The contracting effect of the PLA2 is concentration-dependent and a concentration of 4.4 μg/ml was used in the experiments with the peptide 204-212. The experiments were carried out as follows:
a) estimation of the stomach contracting effect by the PLA2 at the final concentration of 4.4 μg/ml (control value)
b) after thoroughly washing the strip, peptide (I) was added at the concentration of 20 μg/ml and the effect of the PLA2 was estimated again after 30 min (sample).

Test [3] has as its system PLA2 induced oedema in rat paw. As to the kind of experiment: Inhibition of PLA2 induced oedema in rat paw. The format is in vivo. The following applies: 2 mg/Kg (400 μg) co-injected with 5 μg PLA2 into paw, mean of five. On the procedure:
The oedema induced by PLA2 in the rat paw was generated according to the modified technique of Marshall et al. (J. Cell Biochem. suppl. 12 E: S325, 1985). Practically, the enzyme phospholipase A2 (Naja Mocambique), with a specific activity of about 400 units/mg protein, was dissolved into a physiological solution comprising calcium chloride 1 mM to a final concentration of 100 μg/ml. Thereafter samples (0.5 ml) of said solution were diluted 1:1 (v/v) either with a physiological solution as such, or with a physiological solution comprising the synthetic peptide 204-212 at a concentration of 8 mg/ml. The thus obtained solutions were incubated at 37° C. for 15 min. At the end of this incubation period, 0.1 ml of the solutions either comprising 5 μg of PLA2 only, or additionally 400 μg of the synthetic peptide, were injected into the right back paw of male Wistar rats of 200 g weight (thus the synthetic peptide 204- 212 was given at a 2 mg/Kg dose). The oedema in the paw was measured by means of a water plesthysomometer 30 and 60 min after the injection. The results reported in Table 4 confirm the in vivo PLA2 inhibiting effect of the peptide 204-212.

The subject of test [4] is carrageenin induced oedema in rat paw. As to the kind of experiment: Inhibition of carrageenin induced oedema in rat paw. The format is in vivo. The following applies: for Oedema 3 hours Inhibition %: 3 hours after carrageenin; for Oedema 4 hours Inhibition %: 4 hours after carrageenin. As for the experimental part: The carrageenin induced oedema in the rat paw was generated as disclosed by Parente et al. (Eur. J. Pharmacol., 99: 233-239, (1984). Practically 0.1 ml physiological solution comprising 1% (w/v) lambda carrageenin (Sigma) were injected subcutaneously into the right back paw of male Wistar rats weighing 200 g pretreated as follows: 5 rats (control) were locally inoculated with 100 μl sterile physiological solution; 5 rats were locally injected with 100 μl physiological solution comprising […] (respectively corresponding to a dose of 2 and 0.5 mg/Kg) synthetic peptide 204-212. The oedema was measured with a water plethysmometer 3 and 4 hours after the carrageenin injection. The results in Table 5 show an inhibition of the oedema due to the peptide 204-212 and moreover that the extent of the inhibition is dose-dependent.
In general terms: Carrageenan injected into the paw causes an acute inflammation.

Another test has as its system human fibroblasts. The conditions noted are these: for Inhibition %: PGE2 release, bradykinin 1 μM.

T1 sequence (P00592 23-146): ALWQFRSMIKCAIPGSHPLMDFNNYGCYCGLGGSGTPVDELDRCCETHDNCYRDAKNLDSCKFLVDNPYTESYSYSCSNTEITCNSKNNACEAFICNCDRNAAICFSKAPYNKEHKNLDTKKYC
Experimental for human fibroblasts: Thereafter 0.2 ml of said suspension were placed into each well of a 96 flat bottomed well Cluster dish (firm Costar) and incubated at 37° C. for 72 hours. At the end of said period the cells were washed three times with 0.2 ml medium without serum and then incubated for 60 min at 37° C. as follows:
one part in 0.2 ml DMEM medium without bovine foetal serum (control);
Bradykinin (Sigma) was added thereafter to the final concentration of 1 μM to all the samples, and the incubation was maintained for a further 30 min. Finally the determination of PGE2 in the cell-free supernatants was carried out by making use of a radioimmunoassay.

For `CC(C)C[C@H](NC(=O)[C@H](Cc1c[nH]cn1)NC(=O)[C@@H](N)CO)C(=O)N[C@@H](CCCNC(=N)N)C(=O)N[C@@H](CCCCN)C(=O)N[C@H](C(=O)N[C@@H](Cc1ccccc1)C(=O)N[C@@H](CC(=O)O)C(=O)N[C@@H](CCCCN)C(=O)O)C(C)C` [Peptide 204-212, H-Ser-His-Leu-Arg-Lys-Val-Phe-Asp-Lys-X] (H-SHLRKVFDK-OH), the Inhibition % is reported as 49.8% in test [1] (PGE2 release); 0% in the test with human fibroblasts (1 ng/ml); 16 ± 2% in the test on human fibroblasts (10 ng/ml); 41 ± 7% with human fibroblasts (100 ng/ml); 43 ± 4% in the test on human fibroblasts (1 μg/ml); 63 ± 7% in the test on human fibroblasts (10 μg/ml). Further, in the test on human fibroblasts (100 μg/ml), the Inhibition % is on record as 94 ± 6%. Besides, the PGE2 in test [1] (200 μg/ml opsonized Zymosan, supernatant PGE2 level, mean of three samples plus standard error, control 253.7 + 22.8) is recorded as 129.0 + 16.9. Further, testing at 20 µg/mL in test [2] gave an inhibition of 60.5%. In addition, the “Oedema 30 min” value in test [3] (30 min after injection) was 25.4 ± 7.7. For the same molecule, in test [3] (60 min after injection), the “Oedema 60 min” value is on record as 25.4 ± 7.8. Further, the “Oedema 3 hours Inhibition %” value stood at 22.7 ± 8.3% in test [4] (0.5 mg/Kg local injection) and 37.0 ± 3.3% in test [4] (2.0 mg/Kg local injection). Moreover, the “Oedema 4 hours Inhibition %” value is 13.7 ± 5.1% in test [4] (0.5 mg/Kg local injection) and 37.5 ± 10.1% in test [4] (2.0 mg/Kg local injection). Besides, the “ED 50” value in the test with human fibroblasts amounted to 1.13 µg/mL (≈ 1 µM).

As a reminder, the inhibition is the relative decrease from the control value, in per cent. Read a low inhibition as a weak effect.
